From US11534441B2, “MAP4K1 inhibitors” (Blueprint Medicines Corporation, priority 2020, dated 2022)

What was measured:
[1] = molecular target: MAP4K1 (HPK1) (Homo sapiens (Human), UniProt Q92918); test: MAP4K1 (HPK1) biochemical enzymatic activity, electrophoretic mobility shift (EZReader 2), ATP at APPKM (26 μM)
Excerpt: MAP4K1 (HPK1) and relevant off-target enzymatic activity was monitored using the Perkin Elmer electrophoretic mobility shift technology platform—the EZReader 2. […] Within the linear, steady-state phase of the kinase enzymatic reaction, the mixed pool of phosphorylated (product) and non-phosphorylated (substrate) peptides was passed through the microfluidic system of the PerkinElmer EZ Reader 2, under an applied electric potential difference. The presence of the phosphate group on the product peptide provided a difference in mass and charge between that of the substrate peptide, resulting in a separation of the substrate and product pools in the sample (Perrin et al. 2010). As the product and substrate peptide mixture passes the lasers within the instrument, these pools are detected (λex=488 nm, λent=568 nm) and resolved as separate peaks. The ratio between these peaks reflects the activity of the compound at that concentration, in that well, under those conditions.
Inhibitors were dissolved in 100% DMSO at a stock concentration of 10 mM. A 100×, 10-point, 4-fold serial dilution of each inhibitor was created in 100% DMSO either manually or on a Hamilton STAR liquid handler, starting at a relevant concentration, usually 1 mM. A volume of 0.130 μL of each concentration was transferred to the relevant wells of a 384-well plate (Greiner 781 201) in duplicate using a TTPLabtech Mosquito nano-litre dispenser. Using a Multidrop Combi, the remaining constituents of the kinase reaction were added to the 130 nL of dosed compound as follows (see table below for final reaction details):
Enzyme activity assays at the ^APPKM for ATP or 1 mM ATP: In each well of a 384-well plate, 0.1-15 nM of untreated enzyme was incubated in a total of 13 μL of buffer (100 mM HEPES pH 7.5, 0.015% Brij 35, 10 mM MgCl2, 1 mM DTT) with 1.5 μM fluorescent peptid and 20-1000 μM ATP, at 25° C., for 60-180 minutes in the presence or absence of a dosed concentration series of compound (1% DMSO final concentration). The kinase reactions were stopped by the addition of 70 μl of Stop buffer (100 mM HEPES pH 7.5, 0.015% Brij 35, 35 mM EDTA and 0.2% of Coating Reagent 3 (Caliper Lifesciences)). The plates were read on a Caliper EZReader 2 as described above.

[2] = tested on: expanded CD3+ T cells; test: T cell enhancement of cytokines: IL2 measurement (HTRF) in expanded CD3+ T cells stimulated with anti-CD3/anti-CD28; format: cell-based, human; details: IL-2 measurement
Description: T cells are isolated from whole blood of healthy donors by immunomagnetic negative selection following manufacture's protocol (StemCell Technologies, human T cell isolation kit). Purity of isolated cells is assessed by flow cytometry and yields 95-98% CD3^+ T cells. For expansion of T cells, 1×10^6 cells/well are plated in serum free cell expansion media (ThermoFisher) containing 30 U of recombinant human IL2 (R&D) and stimulated with 25 ul of CD3/CD28 beads (Invitrogen) in 24 well plates for 3-4 days. T cells are then expanded in 175 cm flasks and maintained at a cell density of 1 to 2.5×10^6 cells/ml days by addition of ⅔ of fresh media every 2-3 days. After 10-14 days, cells are frozen in BamBanker freezing media (Thermo) and stored in liquid nitrogen.
For IL2 measurement, expanded CD3^+ T cells are dispensed at 100K cells/well (cultured in X-VIVO 10 Serum-free media) and are stimulated with plate-bound anti-CD3 and soluble anti-CD28 in the presence of vehicle or compound of the disclosure at various concentrations for 24 h. As outlined in the manufacturer's protocol (Cisbio), 16 μL of conditioned media is transferred to a white 384-well low volume plate. Following a 24 h incubation with the anti-IL2 antibodies, the homogenous time resolved fluorescence (HTRF) is measured.

[3] = Homo sapiens, T-cell, class designation
[4] = Homo sapiens, T-cell, numeric value

MAP4K1 (HPK1), sequence (Q92918 whole entry): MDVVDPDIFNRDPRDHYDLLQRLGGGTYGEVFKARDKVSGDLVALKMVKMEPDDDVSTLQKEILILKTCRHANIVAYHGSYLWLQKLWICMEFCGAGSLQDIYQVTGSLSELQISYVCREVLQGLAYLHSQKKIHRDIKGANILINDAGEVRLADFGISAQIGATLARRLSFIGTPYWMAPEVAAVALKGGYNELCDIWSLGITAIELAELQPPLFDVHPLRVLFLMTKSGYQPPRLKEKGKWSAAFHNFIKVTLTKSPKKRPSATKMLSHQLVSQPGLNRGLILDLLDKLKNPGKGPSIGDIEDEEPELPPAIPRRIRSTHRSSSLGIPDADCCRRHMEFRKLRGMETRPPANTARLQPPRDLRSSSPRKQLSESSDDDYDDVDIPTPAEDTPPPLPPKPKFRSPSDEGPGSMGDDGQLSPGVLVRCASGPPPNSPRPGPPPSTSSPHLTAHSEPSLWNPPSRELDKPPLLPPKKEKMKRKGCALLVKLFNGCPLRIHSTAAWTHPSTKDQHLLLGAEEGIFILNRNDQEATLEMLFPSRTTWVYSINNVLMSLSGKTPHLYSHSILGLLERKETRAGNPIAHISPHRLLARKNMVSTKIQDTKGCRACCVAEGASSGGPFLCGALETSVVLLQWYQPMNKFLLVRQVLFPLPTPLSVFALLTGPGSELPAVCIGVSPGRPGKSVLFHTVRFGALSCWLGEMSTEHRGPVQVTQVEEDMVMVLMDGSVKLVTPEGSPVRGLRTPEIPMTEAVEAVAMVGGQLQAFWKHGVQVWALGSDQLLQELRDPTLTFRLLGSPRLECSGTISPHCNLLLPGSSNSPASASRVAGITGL

Row | SMILES | IC50 ([1]; class designation) | IC50 ([1]; numeric value) | EC50 ([2]; class designation) | EC50 ([2]; numeric value) | EC50 [2, 3] | EC50 [2, 4]
1 | COc1ncc(C(C)(C)N)c2cc(Nc3ccc4c(n3)[C@@H](C)COC4=O)ncc12 (single isomer, unassigned) [Compound 22] | 0.31 to 1 nM | 0.5 nM | 35.1 to 45 nM | 36.6 nM | – | –
2 | COc1ncc(C(C)(C)N)c2cc(Nc3ccc4c(n3)C[C@@H](C)OC4=O)ncc12 (single isomer, unassigned) [Compound 24] | 0.31 to 1 nM | 0.47 nM | < 35 nM | 11.3 nM | – | –
3 | COc1ncc(C(C)(C)N)c2cc(Nc3ccc4c(n3)[C@@H](C)[C@@H](C)OC4=O)ncc12 (single isomer, unassigned) [Compound 39] | 0.31 to 1 nM | 0.85 nM | < 35 nM | 16.2 nM | – | –
4 | CCOc1ncc(C(C)(C)N)c2cc(Nc3ccc4c(n3)C[C@H](C)OC4=O)ncc12 (single isomer, unassigned) [Compound 41] | 0.31 to 1 nM | 0.57 nM | < 35 nM | 22.7 nM | – | –
5 | CCOc1ncc(C(C)(C)N)c2cc(Nc3ccc4c(n3)C[C@@H](C)OC4=O)ncc12 (single isomer, unassigned) [Compound 42] | 0.31 to 1 nM | 0.86 nM | < 35 nM | 13.6 nM | – | –
6 | CCOc1ncc(C(C)(C)N)c2cc(Nc3ccc4c(n3)[C@H](C)COC4=O)ncc12 (single isomer, unassigned) [Compound 44] | 1.1 to 10 nM | 1.2 nM | < 35 nM | 22 nM | – | –
7 | CCOc1ncc(C(C)(C)N)c2cc(Nc3ccc4c(n3)[C@@H](C)[C@@H](C)OC4=O)ncc12 (single isomer, unassigned) [Compound 59] | 1.1 to 10 nM | 3.35 nM | > 55 nM | 56.7 nM | – | –
8 | C[C@](N)(c1cnc(OC2CC2)c2cnc(Nc3ccc4c(n3)CCNC4=O)cc12)C1CC1 (single isomer, unassigned) [Compound 106] | – | 0.61 nM | – | – | 35.1 to 45 nM | 41.3 nM
9 | C[C@H]1COC(=O)c2ccc(Nc3cc4c([C@](C)(N)C5CC5)cnc(OC5CC5)c4cn3)nc21 (single isomer, unassigned) [Compound 117] | < 0.3 nM | – | – | – | < 35 nM | 16 nM
10 | C[C@@H]1COC(=O)c2ccc(Nc3cc4c([C@](C)(N)C5CC5)cnc(OC5CC5)c4cn3)nc21 (single isomer, unassigned) [Compound 118] | 1.1 to 10 nM | 1.28 nM | > 55 nM | 81.7 nM | – | –
11 | CC[C@]1(C)OC(=O)c2ccc(Nc3cc4c([C@](C)(N)C5CC5)cnc(OC5CC5)c4cn3)nc21 (single isomer, unassigned) [Compound 152] | 0.31 to 1 nM | 0.42 nM | > 55 nM | 54.4 nM | – | –
12 | C[C@@H]1OC(=O)c2ccc(Nc3cc4c([C@](C)(N)C5CC5)cnc(OC5CC5)c4cn3)nc2[C@@H]1C (single isomer, unassigned) [Compound 155] | 0.31 to 1 nM | 0.97 nM | > 55 nM | 88.4 nM | – | –
13 | CC[C@@](C)(N)c1cnc(OCC(F)(F)F)c2cnc(Nc3ccc4c(n3)[C@@H](C)[C@H](C)OC4=O)cc12 (single isomer, unassigned) [Compound 181] | < 0.3 nM | – | – | – | < 35 nM | 15.1 nM
14 | CC[C@@H](N)c1cnc(C)c2cnc(Nc3ccc4c(n3)[C@@H](C)[C@H](C)OC4=O)cc12 [Compound 202] | 0.31 to 1 nM | 0.62 nM | – | – | – | –
15 | CC[C@@H](N)c1cnc(OC)c2cnc(Nc3ccc4c(n3)[C@@H](C)[C@H](C)OC4=O)cc12 [Compound 203] | 0.31 to 1 nM | 0.5 nM | – | – | – | –
16 | CC[C@@H](N)c1ccc(Cl)c2cnc(Nc3ccc4c(n3)[C@@H](C)C(C)(C)OC4=O)cc12 [Compound 209] | 0.31 to 1 nM | – | – | – | – | –

More lines, in order of falling IC50 ([1]; numeric value), values ahead:

Row | IC50 ([1]; class designation) | IC50 ([1]; numeric value) | EC50 ([2]; class designation) | EC50 ([2]; numeric value) | EC50 [2, 3] | EC50 [2, 4] | SMILES
17 | < 0.3 nM | 0.29 nM | < 35 nM | 3.3 nM | – | – | COc1ncc(C(C)(C)N)c2cc(Nc3ccc4c(n3)C[C@H](C)OC4=O)ncc12 (single isomer, unassigned) [Compound 25]
18 | – | 0.27 nM | – | – | 35.1 to 45 nM | 45.2 nM | C[C@](N)(c1cnc(OC2CC2)c2cnc(Nc3ccc4c(n3)CC3(CC3)OC4=O)cc12)C1CC1 (single isomer, unassigned) [Compound 147]
19 | – | 0.25 nM | – | – | > 55 nM | 60.4 nM | C[C@](N)(c1cnc(OC2CC2)c2cnc(Nc3ccc4c(n3)C3(CC3)COC4=O)cc12)C1CC1 (single isomer, unassigned) [Compound 146]
20 | < 0.3 nM | 0.23 nM | < 35 nM | 8.3 nM | – | – | CCOc1ncc(C(C)(C)N)c2cc(Nc3ccc4c(n3)[C@@H](C)COC4=O)ncc12 (single isomer, unassigned) [Compound 43]
21 | – | 0.22 nM | – | – | < 35 nM | 27.3 nM | CC1(C)COC(=O)c2ccc(Nc3cc4c([C@](C)(N)C5CC5)cnc(OC5CC5)c4cn3)nc21 (single isomer, unassigned) [Compound 151]
22 | < 0.3 nM | 0.19 nM | – | – | – | – | COC[C@@](C)(N)c1cnc(C)c2cnc(Nc3ccc4c(n3)[C@@H](C)C(C)(C)OC4=O)cc12 [Compound 206]
23 | < 0.3 nM | 0.18 nM | < 35 nM | 10.3 nM | – | – | CCOc1ncc(C(C)(C)N)c2cc(Nc3ccc4c(n3)[C@H](C)[C@H](C)OC4=O)ncc12 (single isomer, unassigned) [Compound 60]
24 | < 0.3 nM | 0.18 nM | < 35 nM | 12.9 nM | – | – | CC[C@@](C)(N)c1cnc(OC2CC2)c2cnc(Nc3ccc4c(n3)CC(C)(C)OC4=O)cc12 (single isomer, unassigned) [Compound 132]
25 | < 0.3 nM | 0.15 nM | < 35 nM | 4 nM | – | – | COc1ncc(C(C)(C)N)c2cc(Nc3ccc4c(n3)[C@H](C)[C@H](C)OC4=O)ncc12 (single isomer, unassigned) [Compound 40]
26 | < 0.3 nM | 0.15 nM | < 35 nM | 3.5 nM | – | – | CC[C@@](C)(N)c1cnc(OC)c2cnc(Nc3ccc4c(n3)CC(C)(C)OC4=O)cc12 (single isomer, unassigned) [Compound 61]
27 | – | 0.12 nM | – | – | < 35 nM | 6.5 nM | C[C@@H]1c2nc(Nc3cc4c([C@](C)(N)C5CC5)ncc(OC5CC5)c4cn3)ccc2C(=O)OC1(C)C (single isomer, unassigned) [Compound 76]
28 | < 0.3 nM | 0.11 nM | < 35 nM | 4.9 nM | – | – | COc1ncc(C(C)(C)N)c2cc(Nc3ccc4c(n3)[C@@H](C)COC4=O)ncc12 (single isomer, unassigned) [Compound 23]
29 | – | 0.09 nM | – | – | < 35 nM | 7.3 nM | C[C@@H]1OC(=O)c2ccc(Nc3cc4c([C@](C)(N)C5CC5)cnc(OC5CC5)c4cn3)nc2[C@H]1C (single isomer, unassigned) [Compound 75]
30 | < 0.3 nM | 0.08 nM | < 35 nM | 11 nM | – | – | C[C@@H]1c2nc(Nc3cc4c([C@](C)(N)C5CC5)cnc(OC5CC5)c4cn3)ccc2C(=O)O[C@@H]1C (single isomer, unassigned) [Compound 154]
31 | < 0.3 nM | 0.07 nM | < 35 nM | 27.6 nM | – | – | C[C@H]1OC(=O)c2ccc(Nc3cc4c([C@](C)(N)C5CC5)cnc(OC5CC5)c4cn3)nc2C1(C)C (single isomer, unassigned) [Compound 171]
32 | < 0.3 nM | 0.05 nM | < 35 nM | 9.4 nM | – | – | C[C@H]1OC(=O)c2ccc(Nc3cc4c([C@](C)(N)C5CC5)cnc(OC5CC5)c4cn3)nc2C12CC2 (single isomer, unassigned) [Compound 167]
